The subject of one assay is SJSA-1 cells. Description: Cell lysis by peptidomimetic macrocycles (LDH release). The format is cell-based. Conditions: 1 h at 37C. Background: LDH in the medium is a marker of cell lysis.
For the next assay, the target named is T1, MDMX (Homo sapiens, UniProt O15151).
T1 sequence (O15151 1-125): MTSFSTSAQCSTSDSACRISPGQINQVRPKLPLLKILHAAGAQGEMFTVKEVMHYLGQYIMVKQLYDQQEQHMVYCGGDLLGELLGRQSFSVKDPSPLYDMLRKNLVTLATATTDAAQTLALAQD
Put plainly: Competitive fluorescence polarization assay for MDMX. The class given is binding. Conditions: competitive FP assay; for IC50: read-out: IC50 (MDMX); for Ki: read-out: Ki (MDMX).

The next assay addresses MDM2 (Homo sapiens, UniProt Q00987). Put plainly: Competitive fluorescence polarization assay for MDM2. The format is binding. As to conditions: competitive FP assay, MDM2; for IC50: read-out: IC50 (MDM2); for Ki: read-out: Ki (MDM2).
The next assay concerns Caspase 3. Description: Caspase 3 detection assay in SJSA1 cells. The class given is cell-based. Conditions: 48 h, Caspase 3 activation over DMSO-treated cells; for caspase 0.3 uM: 0.3 uM peptide; for caspase 3 uM: 3 uM peptide; for caspase 10 uM: 10 uM peptide; for caspase 30 uM: 30 uM peptide.

Where a SMILES comes first, the peptide text is derived from it. Bridges are numbered along the chain shown (N, C = ends). [ ]: non-standard residue; d: D form. R8 = C=CCCCCCC[C@@](C)(N)C(=O)O; Cba = N[C@@H](CC1CCC1)C(=O)O; S5 = C=CCCC[C@](C)(N)C(=O)O; Nle = CCCC[C@H](N)C(=O)O

What is called IC50 is the midpoint of a concentration-inhibition curve. By Ki is commonly meant a measure of affinity in units of concentration, obtained from inhibition or displacement.

MDM2, sequence (Q00987 1-125): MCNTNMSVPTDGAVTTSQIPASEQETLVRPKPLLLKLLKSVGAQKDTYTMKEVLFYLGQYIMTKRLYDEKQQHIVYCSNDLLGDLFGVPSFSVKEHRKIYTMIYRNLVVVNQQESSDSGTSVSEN

For `CC[C@H](C)[C@H](NC(=O)[C@H](C)NC(=O)[C@H](C)NC(=O)[C@]1(C)CCCC=CCCCCCC[C@@](C)(NC(=O)[C@H](Cc2ccccc2)NC(=O)[C@@H](NC(=O)[C@H](CC(C)C)NC(C)=O)[C@@H](C)O)C(=O)N[C@@H](C)C(=O)N[C@@H](Cc2ccc(O)cc2)C(=O)N[C@@H](Cc2c[nH]c3ccccc23)C(=O)N[C@@H](C)C(=O)N[C@@H](CCC(N)=O)C(=O)N[C@@H](CC(C)C)C(=O)N1)C(=O)N[C@H](CC(C)C)C(N)=O` (single isomer, unassigned) [compound 82], in the assay with SJSA-1 cells, the “6.25 uM % Lysed cells (1 h LDH)” value turned out to be 0%, the “25 uM % Lysed cells (1 h LDH)” value turned out to be 0% and the “50 uM % Lysed cells (1 h LDH)” value is on record as 1%.
As for `CC(=O)N[C@@H](CC(C)C)C(=O)N[C@H](C(=O)N[C@@H](Cc1ccccc1)C(=O)N[C@]1(C)CCCCCCC=CCCC[C@@](C)(C(=O)N[C@@H](C)C(=O)N[C@H](C(=O)NCC(N)=O)C(C)C)NC(=O)[C@H](CC(C)C)NC(=O)[C@H](CCC(N)=O)NC(=O)[C@H](C)NC(=O)[C@H](Cc2c[nH]c3ccccc23)NC(=O)[C@H](Cc2ccc(O)cc2)NC(=O)[C@H](C)NC1=O)[C@@H](C)O` (single isomer, unassigned) [compound 108], in the assay with SJSA-1 cells, the “6.25 uM % Lysed cells (1 h LDH)” value is reported as 0%, the “25 uM % Lysed cells (1 h LDH)” value was found to be 0% and the “50 uM % Lysed cells (1 h LDH)” value is recorded as 1%.
For `CC(=O)N[C@@H](CC(C)C)C(=O)N[C@H](C(=O)N[C@@H](Cc1ccccc1)C(=O)N[C@]1(C)CCCCCCC=CCCC[C@@](C)(C(=O)N[C@@H](CO)C(=O)N[C@@H](C)C(=O)N[C@@H](C)C(N)=O)NC(=O)[C@H](C2CCCC2)NC(=O)[C@H](CCC(N)=O)NC(=O)[C@H](C)NC(=O)[C@H](Cc2c[nH]c3ccccc23)NC(=O)[C@H](Cc2ccc(O)cc2)NC(=O)[C@H](CCC(=O)O)NC1=O)[C@@H](C)O` (single isomer, unassigned) [compound 150], at MDMX, the IC50 lay within 100 to 1000 nM and the Ki lay in the range of 10 to 100 nM. Further, in the assay on SJSA-1 cells, the “6.25 uM % Lysed cells (1 h LDH)” value is −1%, the “25 uM % Lysed cells (1 h LDH)” value amounted to 0% and the “50 uM % Lysed cells (1 h LDH)” value was determined as 2%.
As for `CC[C@H](C)[C@H](NC(=O)[C@H](C)NC(=O)[C@H](C)NC(=O)[C@]1(C)CCCC=CCCCCCC[C@@](C)(NC(=O)[C@H](Cc2ccccc2)NC(=O)[C@@H](NC(=O)[C@H](CCC(=O)O)NC(C)=O)[C@@H](C)O)C(=O)N[C@@H](CCC(=O)O)C(=O)N[C@@H](Cc2c[nH]cn2)C(=O)N[C@@H](Cc2c[nH]c3ccccc23)C(=O)N[C@@H](C)C(=O)N[C@@H](CCC(N)=O)C(=O)N[C@@H](CC(C)C)C(=O)N1)C(=O)N[C@H](C)C(N)=O` (single isomer, unassigned) [compound 174], in the assay with SJSA-1 cells, the “6.25 uM % Lysed cells (1 h LDH)” value was found to be 5%, the “25 uM % Lysed cells (1 h LDH)” value amounted to 2% and the “50 uM % Lysed cells (1 h LDH)” value is recorded as 5%.
As to `CC[C@H](C)[C@H](NC(=O)[C@H](C)NC(=O)[C@H](C)NC(=O)[C@]1(C)CCCC=CCCCCCC[C@@](C)(NC(=O)[C@H](Cc2ccccc2)NC(=O)[C@@H](NC(=O)[C@H](CC(C)C)NC(C)=O)[C@@H](C)O)C(=O)N[C@@H](CCC(=O)O)C(=O)N[C@@H](Cc2ccc(C(=O)O)cc2)C(=O)N[C@@H](Cc2c[nH]c3cc(Cl)ccc23)C(=O)N[C@@H](C)C(=O)N[C@@H](CCC(N)=O)C(=O)N[C@@H](CC2CCC2)C(=O)N1)C(=O)N[C@H](C)C(N)=O` (single isomer, unassigned) [compound 335], in the assay with SJSA-1 cells, the “6.25 uM % Lysed cells (1 h LDH)” value turned out to be 0%, the “25 uM % Lysed cells (1 h LDH)” value was determined as 0% and the “50 uM % Lysed cells (1 h LDH)” value came out at 1%.
Consider `CC(=O)N[C@@H](CCC(=O)O)C(=O)N[C@H](C(=O)N[C@@H](Cc1ccccc1)C(=O)N[C@]1(C)CCCCCCC=CCCC[C@@](C)(C(=O)N[C@@H](C)C(=O)N[C@@H](C)C(=O)N[C@@H](C)C(=O)N[C@@H](C)C(=O)N[C@@H](C)C(=O)N[C@H](C)C(N)=O)NC(=O)[C@H](CC(C)C)NC(=O)[C@H](CCC(N)=O)NC(=O)[C@H](C)NC(=O)[C@H](Cc2c[nH]c3ccccc23)NC(=O)[C@H](Cc2ccc(O)cc2)NC(=O)[C@H](CCC(=O)O)NC1=O)[C@@H](C)O` (single isomer, unassigned) [compound 340], for which, in the assay on SJSA-1 cells, the “6.25 uM % Lysed cells (1 h LDH)” value turned out to be 0%, the “25 uM % Lysed cells (1 h LDH)” value is reported as 0% and the “50 uM % Lysed cells (1 h LDH)” value came to 0%.
With `CC(=O)N[C@@H](CC(C)C)C(=O)N[C@H](C(=O)N[C@@H](Cc1ccccc1)C(=O)N[C@]1(C)CCCCCCC=CCCC[C@@](C)(C(=O)N[C@@H](C)C(=O)N[C@@H](Cc2c[nH]cn2)C(=O)N[C@@H](Cc2ccccc2)C(=O)N[C@@H](C)C(N)=O)NC(=O)[C@H](CC(C)C)NC(=O)[C@H](CCC(N)=O)NC(=O)[C@H](C(C)C)NC(=O)[C@H](Cc2c[nH]c3ccccc23)NC(=O)[C@H](Cc2c[nH]cn2)NC(=O)[C@H](C)NC1=O)[C@@H](C)O` [compound 190] (Ac-LTF[R8]AHWVQL[S5]AHFA-NH2; staple 4-11), in the assay with SJSA-1 cells, the “6.25 uM % Lysed cells (1 h LDH)” value is on record as −1%, the “25 uM % Lysed cells (1 h LDH)” value was 0% and the “50 uM % Lysed cells (1 h LDH)” value is reported as 1%.
In the case of `CCCC[C@H](NC(=O)[C@H](C)NC(=O)[C@H](C)NC(=O)[C@]1(C)CCCC=CCCCCCC[C@@](C)(NC(=O)[C@H](Cc2ccccc2)NC(=O)[C@@H](NC(=O)[C@H](CC(C)C)NC(C)=O)[C@@H](C)O)C(=O)N[C@@H](CCC(=O)O)C(=O)N[C@@H](Cc2ccc(O)cc2)C(=O)N[C@@H](Cc2c[nH]c3ccccc23)C(=O)N[C@@H](C)C(=O)N[C@@H](CCC(N)=O)C(=O)N[C@@H](CC2CCC2)C(=O)N1)C(=O)N[C@@H](C)C(N)=O` [compound 238] (Ac-LTF[R8]EYWAQ[Cba][S5]AA[Nle]A-NH2; staple 4-11), at MDM2, the IC50 lay within 10 to 100 nM and the Ki was less than 10 nM. Also, at MDMX, the IC50 is 10 to 100 nM and the Ki was 10 to 100 nM. Besides, in the assay on Caspase 3, the “caspase 0.3 uM” value is reported as 1, the “caspase 3 uM” value came out at 2, the “caspase 10 uM” value turned out to be 4 and the “caspase 30 uM” value is reported as 21.
In the case of `CC(=O)N[C@@H](CC(C)C)C(=O)N[C@H](C(=O)N[C@@H](Cc1ccccc1)C(=O)N[C@]1(C)CCCCCCC=CCCC[C@@](C)(C(=O)N[C@@H](CO)C(=O)N[C@@H](C)C(=O)N[C@@H](Cc2ccccc2)C(=O)N[C@@H](C)C(N)=O)NC(=O)[C@H](CC2CCC2)NC(=O)[C@H](CCC(N)=O)NC(=O)[C@H](C)NC(=O)[C@H](Cc2c[nH]c3ccccc23)NC(=O)[C@H](Cc2ccc(O)cc2)NC(=O)[C@H](CCC(=O)O)NC1=O)[C@@H](C)O` [compound 242] (Ac-LTF[R8]EYWAQ[Cba][S5]SAFA-NH2; staple 4-11), on MDM2, the IC50 fell in the range of 10 to 100 nM and the Ki is less than 10 nM. In addition, at MDMX, the IC50 is 100 to 1000 nM and the Ki was 10 to 100 nM. Besides, in the assay with Caspase 3, the “caspase 0.3 uM” value is recorded as 1, the “caspase 3 uM” value is 4, the “caspase 10 uM” value was determined as 5 and the “caspase 30 uM” value stood at 18.
Consider `CC(C)CC[C@@H]1NC(=O)[C@H](CCC(N)=O)NC(=O)[C@H](C)NC(=O)[C@H](Cc2c[nH]c3ccccc23)NC(=O)[C@H](Cc2ccc(O)cc2)NC(=O)[C@H](CCC(=O)O)NC(=O)[C@](C)(NC(=O)[C@H](Cc2ccccc2)NC(=O)[C@@H](NC(=O)[C@H](CC(C)C)NC(=O)CN(C)C)[C@@H](C)O)CCCCCCC=CCCC[C@@](C)(C(=O)N[C@@H](CO)C(=O)N[C@@H](C)C(=O)N[C@@H](C)C(N)=O)NC1=O` [compound 279], for which, at MDMX, the IC50 lay within 10 to 100 nM and the Ki was 10 to 100 nM. In addition, in the assay with SJSA-1 cells, the “6.25 uM % Lysed cells (1 h LDH)” value was 6%, the “25 uM % Lysed cells (1 h LDH)” value was determined as 5% and the “50 uM % Lysed cells (1 h LDH)” value is reported as 6%.
With `CCCCCC(=O)N[C@@H](CC(C)C)C(=O)N[C@H](C(=O)N[C@@H](Cc1ccccc1)C(=O)N[C@]1(C)CCCCCCC=CCCC[C@@](C)(C(=O)N[C@@H](CO)C(=O)N[C@@H](C)C(=O)N[C@@H](C)C(N)=O)NC(=O)[C@H](CCC(C)C)NC(=O)[C@H](CCC(N)=O)NC(=O)[C@H](C)NC(=O)[C@H](Cc2c[nH]c3ccccc23)NC(=O)[C@H](Cc2ccc(O)cc2)NC(=O)[C@H](CCC(=O)O)NC1=O)[C@@H](C)O` [compound 280], on MDMX, the IC50 fell in the range of 100 to 1000 nM and the inhibition constant (Ki) lay within 10 to 100 nM. Also, in the assay with SJSA-1 cells, the “6.25 uM % Lysed cells (1 h LDH)” value was 5%, the “25 uM % Lysed cells (1 h LDH)” value was 6% and the “50 uM % Lysed cells (1 h LDH)” value turned out to be 18%.
In the case of `CC(C)CC[C@@H]1NC(=O)[C@H](CCC(N)=O)NC(=O)[C@H](C)NC(=O)[C@H](Cc2c[nH]c3ccccc23)NC(=O)[C@H](Cc2ccc(O)cc2)NC(=O)[C@H](CCC(=O)O)NC(=O)[C@](C)(NC(=O)[C@H](Cc2ccccc2)NC(=O)[C@@H](NC(=O)[C@H](CC(C)C)NC(=O)C(C)(C)C)[C@@H](C)O)CCCCCCC=CCCC[C@@](C)(C(=O)N[C@@H](CO)C(=O)N[C@@H](C)C(=O)N[C@@H](C)C(N)=O)NC1=O` [compound 284], at MDMX, the IC50 fell in the range of 100 to 1000 nM and the Ki was 10 to 100 nM. Moreover, in the assay with SJSA-1 cells, the “6.25 uM % Lysed cells (1 h LDH)” value is given as 5%, the “25 uM % Lysed cells (1 h LDH)” value turned out to be 5% and the “50 uM % Lysed cells (1 h LDH)” value is 6%.
In the case of `CCCC[C@H](NC(=O)[C@H](C)NC(=O)[C@H](C)NC(=O)[C@]1(C)CCCC=CCCCCCC[C@@](C)(NC(=O)[C@H](Cc2ccccc2)NC(=O)[C@@H](NC(=O)[C@H](CC(C)C)NC(C)=O)[C@@H](C)O)C(=O)N[C@@H](C)C(=O)N[C@@H](Cc2ccc(O)cc2)C(=O)N[C@@H](Cc2c[nH]c3ccccc23)C(=O)N[C@@H](Cc2cc(=O)oc3cc(OC)c(OC)cc23)C(=O)N[C@@H](CCC(N)=O)C(=O)N[C@@H](CC(C)C)C(=O)N1)C(=O)N[C@@H](C)C(N)=O` [compound 415], in the assay with SJSA-1 cells, the “6.25 uM % Lysed cells (1 h LDH)” value is 4%, the “25 uM % Lysed cells (1 h LDH)” value stood at 2% and the “50 uM % Lysed cells (1 h LDH)” value came to 2%.

The record behind these values is patent US8927500B2, “Peptidomimetic macrocycles” (Aileron Therapeutics, Inc., priority 2012, dated 2015).
